Laboratory results from patent US20240287070A1, “FUSED HETEROCYCLIC DERIVATIVES” (Janssen Sciences Ireland Unlimited Company, priority 2021, published 2024).

Key:
[1] = tested on: HBV (HepG2.117 cell line, inducibly HBV producing); experiment: Anti-HBV activity, intracellular HBV DNA by real-time PCR in HepG2.117 cell line; type: cell-based, hepatitis B virus; conditions: HepG2.117 cells, 3 days of treatment
Experimental: The anti HBV activity was measured using the HepG2.117 cell line, a stable, inducibly HBV producing cell line, which replicates HBV in the absence of doxycycline (Tet-off system). The HepG2 cell line is available from ATCCR under number HB-8065. Transfection of the HepG2 cell line can be as described in Sun and Nassal 2006 Journal of Hepatology 45 (2006) 636-645 “Stable HepG2- and Huh7-based human hepatoma cell lines for efficient regulated expression of infectious hepatitis B virus”.
For the antiviral assay, HBV replication was induced, followed by a treatment with serially diluted compound in 96-well plates. After 3 days of treatment, the antiviral activity was determined by quantification of intracellular HBV DNA using real-time PCR and an HBV specific primer set and probe.

[2] = Cytotoxicity, ATPlite Luminescence Assay; type: cell-based, human; conditions: human, HepG2 or HepG2.117 cells, 3-days incubation unless marked with *
Experimental: Cytotoxicity of the compounds was tested using HepG2 or HepG2.117 cells, incubated for 3 or 4 days in the presence of compounds. The viability of the cells was assessed using the PERKIN ELMER ATPlite Luminescence Assay System.”

[3] = Human liver microsome stability; type: in vitro ADME; conditions: 1 μM compound, NADPH 1 mM, 37° C., 0-60 min; for half-life at 1 μM: human, pooled human liver microsomes, pH 7.4, pooled human liver microsomes 0.5 mg/mL, read-out: HLM Metabolism t1/2
Experimental: Human Liver Microsome Stability t½ (Min) of Compounds of Formula (I) […] All incubations are performed singularly for each compound. NADPH was added to initiate the reaction with the final concentration of 1 mM and the final incubation volume of 400 μL. At 6 time points (0, 5, 10, 20, 40 and 60 min) reactions were stopped by the removal of 50 μL of the incubation mixture into plates containing acetonitrile at a of 1:3 (v:v). The plates were centrifuged at 3000 rpm for 10 min at 4° C. to precipitate the protein. Following protein precipitation, the sample supernatants were combined in cassettes of up to 8 compounds. The internal standard was added (1:1 supernatant to internal standard solution) and samples were analyzed using standard LC-MS conditions. From a plot of ln peak area ratio (compound peak area/internal standard peak area) against time, the gradient of the line is determined. Subsequently, half-life is calculated using the equations below: Elimination rate constant (k)=(−gradient) […]

[4] = Hepatitis B virus, HepG2.117, 72 h

CC(c1nnc(C2CC2)o1)N1C[C@@H](C)n2nc3c(c2C1=O)CN(C(=O)c1ccc(Cl)c(Cl)c1)[C@H](C)C3 (single isomer, unassigned) [Compound 44A, (3R,7R)-9-((R*)-1-(5-cyclopropyl-1,3,4-oxadiazol-2-yl)ethyl)-2-(3,4-dichlorobenzoyl)-3,7-dimethyl-1,2,3,4,8,9-hexahydropyrido[4′,3′:3,4]pyrazolo[1,5-a]pyrazin-10(7H)-one]
EC50 [1]: 0.22 µM
CC50 at 3 days [2]: > 50 µM
half-life at 1 μM [3]: > 3 h

CC(c1ccc(C(C)(C)O)cc1)N1C[C@@H](C)n2nc3c(c2C1=O)CN(C(=O)c1ccc(Cl)c(Cl)c1)[C@H](C)C3 (single isomer, unassigned) [Compound 8A, (3R,7R)-2-(3,4-dichlorobenzoyl)-9-((R*)-1-(4-(2-hydroxypropan-2-yl)phenyl)ethyl)-3,7-dimethyl-1,2,3,4,8,9-hexahydropyrido[4′,3′:3,4]pyrazolo[1,5-a]pyrazin-10(7H)-one]
EC50 [1]: 0.024 µM
CC50 at 3 days [2]: 20.1 µM
half-life at 1 μM [3]: > 3 h

CC(c1cnn(C)c(=O)c1)N1C[C@@H](C)n2nc3c(c2C1=O)CN(C(=O)c1ccc(Cl)c(C(F)(F)F)c1)[C@H](C)C3 (single isomer, unassigned) [Compound 52A, (3R,7R)-2-(4-chloro-3-(trifluoromethyl)benzoyl)-3,7-dimethyl-9-((R*)-1-(1-methyl-6-oxo-1,6-dihydropyridazin-4-yl)ethyl)-1,2,3,4,8,9-hexahydropyrido [4′,3′:3,4]pyrazolo[1,5-a]pyrazin-10(7H)-one]
EC50 [1]: 0.12 µM
CC50 at 3 days [2]: > 50 µM
HLM Metabolism t1/2 ([3]; pooled human liver microsomes 0.5 mg/mL): 1.48 h

CC(c1ccc(C(C)(C)O)nc1)N1C[C@@H](C)n2nc3c(c2C1=O)CN(C(=O)c1ccc(Cl)c(C#N)c1)[C@H](C)C3 (single isomer, unassigned) [Compound 63A, 2-chloro-5-((3R,7R)-9-((R*)-1-(6-(2-hydroxypropan-2-yl)pyridin-3-yl)ethyl)-3,7-dimethyl-10-oxo-1,2,3,4,7,8,9,10-octahydropyrido[4′,3′:3,4]pyrazolo[1,5-a]pyrazine-2-carbonyl)benzonitrile]
EC50 [1]: 0.38 µM
CC50 at 3 days [2]: > 50 µM
half-life at 1 μM [3]: > 3 h

CC(c1ccc(=O)n(C)n1)N1C[C@@H](C)n2nc3c(c2C1=O)CN(C(=O)c1ccc(Cl)c(Cl)c1)[C@H](C)C3 (single isomer, unassigned) [Compound 55A, (3R,7R)-2-(3,4-dichlorobenzoyl)-3,7-dimethyl-9-((R*)-1-(1-methyl-6-oxo-1,6-dihydropyridazin-3-yl)ethyl)-1,2,3,4,8,9-hexahydropyrido[4′,3′:3,4]pyrazolo[1,5-a]pyrazin-10(7H)-one]
EC50 [1, 4]: 0.051 µM
CC50 at 3 days [2]: > 50 µM
half-life at 1 μM [3]: > 3 h

CC(c1cnc(C(C)(C)O)nc1)N1C[C@@H](C)n2nc3c(c2C1=O)CN(C(=O)c1ccc(Cl)c(Cl)c1)[C@H](C)C3 (single isomer, unassigned) [Compound 36A, (3R,7R)-2-(3,4-Dichlorobenzoyl)-9-((R*)-1-(2-(2-hydroxypropan-2-yl)pyrimidin-5-yl)ethyl)-3,7-dimethyl-1,2,3,4,8,9-hexahydropyrido[4′,3′:3,4]pyrazolo[1,5-a]pyrazin-10(7H)-one]
EC50 [1]: 0.64 µM
CC50 at 3 days [2]: > 50 µM
half-life at 1 μM [3]: > 3 h

CC(c1ccn(CC(F)(F)F)n1)N1C[C@@H](C)n2nc3c(c2C1=O)CN(C(=O)c1ccc(Cl)c(C#N)c1)[C@H](C)C3 (single isomer, unassigned) [Compound 42B, 2-chloro-5-((3R,7R)-3,7-dimethyl-10-oxo-9-((S*)-1-(1-(2,2,2-trifluoroethyl)-1H-pyrazol-3-yl)ethyl)-1,2,3,4,7,8,9,10-octahydropyrido[4′,3′:3,4]pyrazolo[1,5-a]pyrazine-2-carbonyl)benzonitrile]
EC50 [1, 4]: 0.06 µM
CC50 at 3 days [2]: > 50 µM
half-life at 1 μM [3]: > 3 h

CC(c1ccc(C(C)(C)O)nc1)N1C[C@@H](C)n2nc3c(c2C1=O)CN(C(=O)c1ccc(Cl)c(Cl)c1)[C@H](C)C3 (single isomer, unassigned) [Compound 2A, (3R,7R)-2-(3,4-dichlorobenzoyl)-9-((R*)-1-(6-(2-hydroxypropan-2-yl)pyridin-3-yl)ethyl)-3,7-dimethyl-1,2,3,4,8,9-hexahydropyrido[4′,3′:3,4]pyrazolo[1,5-a]pyrazin-10(7H)-one]
EC50 [1]: 0.099 µM
CC50 at 3 days [2]: > 50 µM
half-life at 1 μM [3]: > 3 h

CC(c1cnc(C(F)(F)F)cn1)N1C[C@@H](C)n2nc3c(c2C1=O)CN(C(=O)c1ccc(Cl)c(C#N)c1)[C@H](C)C3 (single isomer, unassigned) [Compound 10B, 2-Chloro-5-((3R,7R)-3,7-dimethyl-10-oxo-9-((S*)-1-(5-(trifluoromethyl)pyrazin-2-yl)ethyl)-1,2,3,4,7,8,9,10-octahydropyrido[4′,3′:3,4]pyrazolo[1,5-a]pyrazine-2-carbonyl)benzonitrile]
EC50 [1, 4]: 0.087 µM
CC50 at 3 days [2]: > 50 µM
half-life at 1 μM [3]: > 3 h

C[C@@H]1Cc2nn3c(c2CN1C(=O)c1ccc(Cl)c(C(F)(F)F)c1)C(=O)N([C@H](C)c1ccc([S@](C)(=N)=O)cc1)C[C@H]3C (relative stereo) [Compound 19A, (3R,7R)-2-(4-chloro-3-(trifluoromethyl)benzoyl)-3,7-dimethyl-9-((R*)-1-(4-((R*)—S-methylsulfonimidoyl)phenyl)ethyl)-1,2,3,4,8,9-hexahydropyrido[4′,3′:3,4]pyrazolo[1,5-a]pyrazin-10(7H)-one]
EC50 [1, 4]: 0.026 µM
CC50 at 3 days [2]: > 50 µM
half-life at 1 μM [3]: > 3 h

CC(c1cnc(C(F)(F)F)nc1)N1C[C@@H](C)n2nc3c(c2C1=O)CN(C(=O)c1ccc(Cl)c(Cl)c1)[C@H](C)C3 (single isomer, unassigned) [Compound 34A, (3R,7R)-2-(3,4-dichlorobenzoyl)-3,7-dimethyl-9-((R*)-1-(2-(trifluoromethyl)pyrimidin-5-yl)ethyl)-1,2,3,4,8,9-hexahydropyrido[4′,3′:3,4]pyrazolo[1,5-a]pyrazin-10(7H)-one]
EC50 [1]: 0.63 µM
CC50 at 3 days [2]: > 50 µM
half-life at 1 μM [3]: > 3 h

CC(c1ccc(C2(O)CC2)cc1)N1C[C@@H](C)n2nc3c(c2C1=O)CN(C(=O)c1ccc(Cl)c(C#N)c1)[C@H](C)C3 (single isomer, unassigned) [Compound 14A, 2-Chloro-5-((3R,7R)-9-((R*)-1-(4-(1-hydroxycyclopropyl)phenyl)ethyl)-3,7-dimethyl-10-oxo-1,2,3,4,7,8,9,10-octahydropyrido[4′,3′:3,4]pyrazolo[1,5-a]pyrazine-2-carbonyl)benzonitrile]
EC50 [1, 4]: 0.012 µM
CC50 at 3 days [2]: > 50 µM
half-life at 1 μM [3]: 1.37 h

CNC(=O)c1ccc(C(C)N2C[C@@H](C)n3nc4c(c3C2=O)CN(C(=O)c2ccc(Cl)c(Cl)c2)[C@H](C)C4)cn1 (single isomer, unassigned) [Compound 24A, 5-((R*)-1-((3R,7R)-2-(3,4-dichlorobenzoyl)-3,7-dimethyl-10-oxo-1,3,4,7,8,10-hexahydropyrido[4′,3′:3,4]pyrazolo[1,5-a]pyrazin-9(2H)-yl)ethyl)-N-methylpicolinamide]
EC50 [1, 4]: 0.038 µM
CC50 at 3 days [2]: > 50 µM
half-life at 1 μM [3]: > 3 h
